Measurements published in ChEMBL document CHEMBL1157539, “Thousands of chemical starting points for antimalarial lead identification” (Nature, 2010).

These compounds were tested on Plasmodium falciparum (assay: GSK_TCMDC: Inhibition of Plasmodium falciparum 3D7 in whole erythrocytes, using parasite LDH activity as an index of growth.). Conditions: Plasmodium falciparum, 3D7.
Type: functional, organism-based

Structure (SMILES)	XC50 [µM]
O=C(/C=C/c1ccc(Cl)c(Cl)c1)NCCCCCN1CCC(C(=O)Nc2ccc3c(c2)OCO3)CC1	0.839
CC(C)c1sc(N2CCCCC2)nc1C(=O)Nc1ccc(F)cc1C(F)(F)F	0.239
O=C(NCCCCN1CCC(c2ccc3c(c2OCc2ccccn2)CCCC3)CC1)c1ccc(NC(=O)c2ccc(Cl)cc2)cc1	0.803
CCCCSc1nc2c(c(=O)n1Cc1ccco1)C1(CCCCC1)Cc1ccccc1-2	0.958
Cc1cc(NCCC(=O)Nc2ccccc2)nc(NCCc2ccccc2)n1	0.852
CNC(=O)c1cc(NCCCNCc2ccc(Cl)c(C(F)(F)F)c2)nc2ccccc12	0.931
Cc1cc(N[C@@H](Cc2ccccc2)C(=O)NC2CCCC2)nc(NCC2CCCCC2)n1	1.17
O=S1(=O)NC2(CCN(CCc3ccc(Cl)cc3)CC2)Nc2cc(F)cc(F)c21	1.46
Cn1c(Nc2cc(C(C)(C)C)on2)nc2cc(Nc3ccnc(Nc4cccc(S(=O)(=O)N5CCOCC5)c4)n3)ccc21	0.533
COC(=O)CN(C(=O)/C=C/c1ccc(Cl)c(Cl)c1)C1CCC(CN2CCC(c3c[nH]c4ccccc34)CC2)CC1 (configuration not stated)	0.507
CS(=O)(=O)c1ccc(-c2cc(C(F)(F)F)nc(N[C@@H]3CCCC[C@H]3OCc3ccccc3)n2)cc1	0.0604
CS(=O)(=O)NCCCNCc1cccc(-c2csc(-c3nc4ccccc4[nH]3)c2)c1	1.01
CS(=O)(=O)c1ccc(CCNCc2ccc(-c3ccc(CN(C(=O)C4CC(=O)c5ccccc54)C4CCN(Cc5ccccc5)CC4)cc3)nc2)cc1 (configuration not stated)	0.592
CC1CCc2sc(-c3nnc(SC(C)C(=O)N4CCCC4)o3)cc2C1 (configuration not stated)	0.878
COc1ccc(CNCc2ccsc2)cc1-c1ccc(S(=O)(=O)NCCN2CCCC2)c(C)c1	0.898
CN(C)CCOc1ccc(-c2cc(-c3ccc(Cl)c(O)c3)c(-c3ccnc(N)n3)o2)cc1	1.32
O=C(Nc1ccccc1Br)c1cn(-c2ccccc2)nc1-c1cccc([N+](=O)[O-])c1	1.32
COc1ccc(NC(=O)NC2CCN(CCCOc3ccnc4cc(Cl)ccc34)C2)cc1OC (configuration not stated)	0.792
Clc1ccc2c(NN=Cc3cccs3)ccnc2c1	0.922
CS(=O)(=O)NCCCNCc1cccc(-c2cccc(-c3nc4cc(C(F)(F)F)ccc4[nH]3)c2)c1	0.467
CC(C)S(=O)(=O)N1CCN(Cc2ccc3c(c2)nc(NC(=O)c2ccsc2)n3C[C@H](O)c2ccccc2)CC1	0.271
O=C(Nc1nc2cc(S(=O)(=O)NCc3ccc(Cl)c(Cl)c3)ccc2n1CCCN1CCCC1)c1ccc(Cl)cc1	0.939
NS(=O)(=O)NCCCN1CCN(c2ccccc2)CC1	0.977
CC1(C)NC(N)=NC(=N)N1OCCCOc1cccc2ccccc12	0.0032
O=S(=O)(NCCN1CCCC1)c1ccc(-c2ccc(CNCc3ccc(F)cc3)cc2)cc1F	1.28

Structure (SMILES)	XC50 [µM]
CCn1c(-c2nonc2N)nc2c(-c3cccc(NC(=O)Nc4cccc(Cl)c4)c3)ncc(OCCCN)c21	0.941
CCN(CC)CCCNc1nccc(N2CCc3ncnc(Nc4ccc(OCc5cccc(F)c5)c(Cl)c4)c3C2)n1	0.111
COc1ccc(-c2cc(-c3nc4cc(C(=O)N5CCOCC5)ccc4[nH]3)c(=O)n(C)c2)cc1OC	0.863
NS(=O)(=O)c1cccc(Br)c1	0.888
COc1ccc2c(=NN=CC=Cc3ccccc3)cc(C)[nH]c2c1	0.842
Cc1cc(C(=O)Nc2ccc3c(c2)CCN3C2CCN(Cc3ccc(O)cc3)C2)no1 (configuration not stated)	0.774
Cc1cc(N[C@@H](CC(C)C)C(=O)NCc2cccs2)nc(NCCc2ccc(F)cc2)n1	0.8
CCc1ccc(NC(=O)c2cccc(CN3CCCN(Cc4cccc(O)c4)CC3)c2)cc1	0.894
Cc1nnsc1C(=O)Nc1cccc(-c2ccc(-c3nc4cc(F)ccc4[nH]3)s2)c1	0.889
COc1ccc2c(c1)CC(NCc1ccc(-c3ccc4nc[nH]c4c3)cc1)C2 (configuration not stated)	0.88
COc1ccc2nccc(N3CCC(O)(CCNCc4ccc5c(n4)NC(=O)CO5)CC3)c2n1	0.819
COc1cc2c(OC)cccc2cc1CNCCCCCCNCc1cc2cccc(OC)c2cc1OC	0.823
COC(=O)CCn1c(C2CCN(CC3CCC(NC(=O)/C=C/c4ccc(Cl)c(Cl)c4)CC3)CC2)nc2ccccc21 (configuration not stated)	0.951
CN1CCN(c2ccnc3ccc(NC(=O)Nc4cccc5c(C#N)cccc45)cc23)CC1	1.05
O=C(c1ccccc1)N1CCC(CN2CCOC(c3ccccc3)(c3ccccc3)C2)CC1	0.497
Cc1ccccc1C1CCN(c2ncc(C(=O)Nc3ccccc3)cc2Cl)CC1	1.01
O=C(C=Cc1ccc(Cl)c(Cl)c1)NCCCCCN1CCCC(CCCNC(=O)/C=C/c2ccccc2)C1 (configuration not stated)	0.593
FC(F)(F)c1cccc(CCNc2nccc(NCc3ccc(Cl)cc3Cl)n2)c1	0.858
COc1ccc(NC(=O)/C=C/c2ccccc2Cl)cc1OCCN1CCC(c2nc3ccccc3[nH]2)CC1	0.858
Cc1ccc(C(=O)Nc2ccc(Cl)c(N3CCN(CCc4ccccc4)CC3)c2)cc1	0.926
N#Cc1ccc(CN2CCC(Oc3ccc(NC(=O)c4ccco4)cc3Cl)C2)cc1 (configuration not stated)	0.331
COc1ccc2nccc([C@@H](O)CN3CCC(NCc4cc5ccccn5n4)CC3)c2c1	1.57
Cc1ccc(NC(=O)c2ccc(NCCCN3CC(C)CC(C)C3)c([N+](=O)[O-])c2)cc1F (configuration not stated)	0.711
COc1ccc(CCNc2nc(N)c3cc(OC)c(OC)cc3n2)cc1	1.12
O=C(NCCCCN1CC=C(c2ccc3c(c2OCC2CC2)CCCC3)CC1)c1ccc(-c2ccc(C(F)(F)F)cc2)cc1	0.54

Structure (SMILES)	XC50 [µM]
Fc1ccc(C2N=C(SCCSC3=NC(c4ccc(F)cc4)C(c4ccc(F)cc4)N3)NC2c2ccc(F)cc2)cc1 (configuration not stated)	0.912
CC(=O)Nc1ccc(CN2CCc3ccc(NS(=O)(=O)c4cccc(OCc5ccc(Cl)cc5)c4)cc3CC2)s1	0.906
CCCCCCN1CCC(NCc2cccc(C#N)c2)CC1	0.778
O=S(=O)(NCCN1CCCC1)c1cccc(-c2ccc(CNC3Cc4ccccc4C3)cc2)c1	0.66
COc1ccc2nccc([C@@H](O)CN3CCC(NCc4ccc5c(c4)NC(=O)C(C)(C)O5)CC3)c2c1	0.402
CCCCCN1CCCC1CNS(=O)(=O)c1ccc(C(=O)Nc2cccc(C(F)(F)F)c2)cc1 (configuration not stated)	1.06
CN(C)c1ccc(C=Cc2ccc3ccccc3n2)c(Cl)c1	0.436
Cc1nc(-c2cccc(Nc3nccc(NCC(O)c4cccc(C(F)(F)F)c4)n3)c2)cs1 (configuration not stated)	0.627
Cc1cccc2nc(-c3cccc(-c4ccc(NC(=O)CC5NC(=O)c6ccccc65)cc4)c3)[nH]c12 (configuration not stated)	0.289
CNCC(C)(C)c1nc(-c2ccc(Cl)c(O)c2)c(-c2ccncc2)[nH]1	0.736
CC(C)c1ccc(O)cc1Nc1ccnc2ccc(C(F)(F)F)cc12	0.675
C=CCOC(=O)N1CCC(CNCc2ccc(-c3cccc(-c4nc5cc(F)ccc5[nH]4)c3)cc2)C1 (configuration not stated)	0.14
COc1cccc(C(=O)OC2=C3CCC(=O)C3(C)CCC2=O)c1 (configuration not stated)	0.0779
CN(C)c1ccc(NC(=O)Nc2ccnc3ccc(Br)cc23)cc1	0.872
CC1(C)NC(N)=NC(=N)N1OCCCOc1ccccc1Cl	0.0032
CCOC(=O)c1ccc(-c2cnoc2-c2cc(CC)c(OC)cc2O)o1	0.275
COC(=O)c1ccc2nc(-c3ccc(C(=O)NCc4ccc(Cl)c(Cl)c4)cc3)[nH]c2c1	0.852
COCCN1CCC(CNCC(C)(C)c2nc(-c3ccc(Cl)c(O)c3)c(-c3ccncc3)[nH]2)CC1	0.753
Cc1c(Cl)ccc2c(C(=O)Nc3ccncc3)cc(-c3cccnc3)nc12	0.777
Cc1ccc(CCC(C)NCC(O)c2cccc(C(F)(F)F)c2)cc1 (configuration not stated)	0.561
O=C(Nc1ccc2c(c1)CCN(C1CCC1)CC2)c1cn(-c2ccccc2)nc1-c1ccccc1	0.808
Cc1nc(-c2ccc(C(F)(F)F)cn2)sc1C(=O)N1CCc2cc3nccc(N4CCN5CCC[C@H]5C4)c3cc21	0.784
COc1cc(SC)c(Br)cc1-c1nc2ccncc2[nH]1	1.1
CCN1CCCC(Nc2ccnc3cc4ccccc4cc23)C1 (configuration not stated)	0.104
CN1CCN(CCCN(C(=O)Nc2cc(C(F)(F)F)cc(C(F)(F)F)c2)c2ccccc2Cc2ccccc2)CC1	1.13

Structure (SMILES)	XC50 [µM]
CCN(CC)Cc1cccc(-c2cc3c(-c4ccc(C(=O)O)c(C(C)C)c4)ccnc3[nH]2)c1OC	0.323
Fc1ccc(Nc2nnc(CNC3CCN(Cc4ccc(Cl)c(Cl)c4)CC3)[nH]2)cc1	1.38
CC(C)(C)c1nn(-c2ccccc2)c2[nH]c(=O)c(CNC3CCCC3)cc12	0.85
CC(C)(C)c1ccc(NC(=O)c2cccc(CN3CCCN(Cc4cccc(O)c4)CC3)c2)cc1	0.552
COc1ccc2ccc(OC)c(CNCCCCCCNCc3c(OC)ccc4ccc(OC)cc34)c2c1	0.699
O=S1(=O)C=C(c2ccccc2)CC1	0.205
O=c1cc(NCCCN(Cc2ccccc2)Cc2ccccc2)[nH]c2ccccc12	0.577
O=C(NCc1ccccc1[S+]([O-])c1ccccc1CO)C(F)(F)F (configuration not stated)	0.184
Cc1cccc2nc(-c3cccc(-c4cccc(NC(=O)CCc5c[nH]cn5)c4)c3)[nH]c12	0.553
CCc1cn(CCS(C)(=O)=O)c2ccc(C(=O)N[C@@H](Cc3ccccc3)[C@H](O)CNC(C)(C)CCCC(C)C)cc12	0.877
CCCc1cn2c3c(cc(C(=O)N[C@@H](Cc4ccccc4)[C@H](O)CNC4CCCCC4)cc13)N(C)S(=O)(=O)CC2	0.0669
COc1cc(Cc2c(C)nc3nc(N)nc(N)c3c2C)c(Br)c(OC)c1OC	0.404
Cc1cccc2nc(-c3cccc(-c4cccc(NC(=O)c5cncn5C)c4)c3)[nH]c12	0.167
CN(C)CCCOc1ccc(CCNCc2cccc(Oc3ccc(Cl)cc3)c2)cc1	0.887
CC(C)CNCc1ccc(-c2cccc(CNc3ccc4ncccc4c3)c2)cc1	0.913
CSc1cccc(NC(=O)c2cc3ccccc3oc2=O)c1	0.833
COc1ccc2nccc(NC(=O)C3CCC(NCc4ccc5c(c4)NC(=O)CS5)CC3)c2c1 (configuration not stated)	0.586
CN(CCCc1c[nH]c2ccccc12)CC1CCN(C(=O)/C=C/c2ccc(Cl)c(Cl)c2)CC1	0.747
COc1ccc(CCNc2nc(SCc3ccccc3Cl)nc3ccccc23)cc1OC	0.943
c1ccc(CCNCc2cccc(-c3ccccc3CNCc3ccc4c(c3)OCO4)c2)nc1	0.968
Clc1cccc(C23N/C(=N\c4nc5ccccc5[nH]4)NC2(c2ccccc2)N/C(=N\c2nc4ccccc4[nH]2)N3)c1 (configuration not stated)	0.519
O=C(Nc1ccccc1N1CCOCC1)c1ncoc1-c1ccccc1C(F)(F)F	1.06
